Test results: ChEMBL document CHEMBL5244223, “l,8-Naphthalimide based DNA intercalators and anticancer agents. A systematic review from 2007 to 2017” (Eur J Med Chem, 2018)
pIC50: −log10 of the molar value.

How the values were obtained:
SMMC-7721 [1] = experiment: Cytotoxicity against human SMMC-7721 cells assessed as inhibition of cell growth incubated for 48 hrs by MTT assay; type: functional, cell-based; conditions: SMMC-7721, 48 h
Clupea harengus = experiment: Binding affinity to herring DNA assessed as binding constant incubated for 30 mins by fluorescence based EtBr-UV absorption spectral analysis
HCT-116 [2] = experiment: Cytotoxicity against human HCT-116 cells assessed as inhibition of cell growth incubated for 48 hrs by MTT assay; type: functional, cell-based; conditions: HCT-116, 48 h
K562 = experiment: Cytotoxicity against human K562 cells assessed as inhibition of cell growth incubated for 48 hrs by MTT assay; type: functional, cell-based; conditions: K562, 48 h
Mus musculus = experiment: Antitumor activity against mouse H22 cells xenografted in Kunming mouse assessed as decrease in tumor growth at 5 mg/kg administered as single injection via caudal vein for 7 consecutive days; type: functional; parameters: scale not given: the % may be the effect or the level left
HCT-116 [3] = experiment: Cytotoxicity against human HCT-116 cells assessed as inhibition of cell growth incubated for 24 hrs by XTT assay; type: functional, cell-based; conditions: HCT-116, 24 h
PANC-1 = experiment: Cytotoxicity against human PANC-1 cells assessed as inhibition of cell growth incubated for 24 hrs by XTT assay; type: functional, cell-based; conditions: PANC-1, 24 h
Sarcoma-180 [4] = experiment: Antitumor activity against mouse Sarcoma-180 cells xenografted in Swiss mouse assessed as T/C ratio at 40 mg/kg, po daily measured upto 7 days; type: functional; conditions: time <= 7 day
Sarcoma-180 [5] = experiment: Inhibition of RNA synthesis in mouse Sarcoma-180 cells at 8 uM incubated for 60 mins by [3H]-uridine incorporation based scintillation counter analysis; type: functional; conditions: Sarcoma-180, 1 h
Sarcoma-180 [6] = experiment: Inhibition of DNA synthesis in mouse Sarcoma-180 cells at 8 uM incubated for 30 mins by [3H]-thymidine incorporation based scintillation counter analysis; type: functional; conditions: Sarcoma-180, 0.5 h
Ehrlich = experiment: Antitumor activity against mouse EAC cell xenografted in Swiss mouse assessed as T/C ratio at 40 mg/kg, po daily measured upto 7 days; type: functional; conditions: time <= 7 day
P388 = experiment: Cytotoxicity against mouse P388 cells assessed as cell growth inhibition by MTT assay; type: functional, cell-based
MCF7 = experiment: Cytotoxicity against human MCF7 cells assessed as cell growth inhibition by MTT assay; type: functional, cell-based
A549 = experiment: Cytotoxicity against human A549 cells assessed as cell growth inhibition by MTT assay; type: functional, cell-based
HCT-8 = experiment: Cytotoxicity against human HCT-8 cells assessed as cell growth inhibition by MTT assay; type: functional, cell-based
A-375 = experiment: Cytotoxicity against human A-375 cells assessed as cell growth inhibition by MTT assay; type: functional, cell-based
HL-60 = experiment: Cytotoxicity against human HL-60 cells assessed as cell growth inhibition by MTT assay; type: functional, cell-based
HeLa = experiment: Cytotoxicity against human HeLa cells assessed as cell growth inhibition by MTT assay; type: functional, cell-based
Salmon testes DNA = experiment: Binding affinity to salmon Testis DNA assessed as equilibrium binding constant by steady-state fluorescence spectroscopic analysis; conditions: Salmo salar
Homo sapiens [7] = organism: Homo sapiens; experiment: Binding affinity to double stranded [poly(dG-dC)2] DNA (unknown origin) assessed as equilibrium binding constant by steady-state fluorescence spectroscopic analysis
Homo sapiens [8] = organism: Homo sapiens; experiment: Binding affinity to double stranded [poly(dA-dT)2] DNA (unknown origin) assessed as equilibrium binding constant by steady-state fluorescence spectroscopic analysis
Calf thymus DNA [9] = experiment: Binding affinity to calf thymus DNA assessed as binding constant incubated for 10 mins by isothermal titration calorimetric assay; type: nucleic-acid assay; conditions: Bos taurus
Homo sapiens [10] = organism: Homo sapiens; experiment: Binding affinity to double stranded [poly(dA-dT)2] DNA (unknown origin) assessed as change in melting temperature in presence of NaCl by thermal denaturation based spectrometer analysis
Calf thymus DNA [11] = experiment: Binding affinity to calf thymus DNA assessed as binding constant by fluorescence based EtBr-displacement based UV-Vis spectroscopic analysis; type: nucleic-acid assay; conditions: Bos taurus
Homo sapiens [12] = organism: Homo sapiens; experiment: Binding affinity to double stranded [poly(dA-dT)2] DNA (unknown origin) assessed as change in melting temperature by thermal denaturation based spectrometer analysis
Bel-7402 = experiment: Antiproliferative activity against human Bel-7402 cells assessed as inhibition of cell growth incubated for 48 hrs by MTT assay; type: functional, cell-based; conditions: Bel-7402, 48 h
HepG2 = experiment: Antiproliferative activity against human HepG2 cells assessed as inhibition of cell growth incubated for 48 hrs by MTT assay; type: functional, cell-based; conditions: HepG2, 48 h
H22 = experiment: Antiproliferative activity against mouse H22 cells assessed as inhibition of cell growth incubated for 48 hrs by MTT assay; type: functional, cell-based; conditions: H22, 48 h
SMMC-7721 [13] = experiment: Antiproliferative activity against human SMMC-7721 cells assessed as inhibition of cell growth incubated for 48 hrs by MTT assay; type: functional, cell-based; conditions: SMMC-7721, 48 h

NCCCCNCCCN1C(=O)c2cccc3cccc(c23)C1=O
pIC50 (SMMC-7721 [1]): 5.26 | Kb (Clupea harengus): 6.06 10^3/M | pIC50 (HCT-116 [2]): 5.26 | pIC50 (K562): 5.26

CN(C)CCN1C(=O)c2cccc3cc(N)cc(c23)C1=O [AMONAFIDE]
Activity (Mus musculus): 43.73% | pIC50 (HCT-116 [3]): 5.57 | pIC50 (PANC-1): 5.57

CCN(N=O)C(=O)NCCN1C(=O)c2cccc3cccc(c23)C1=O
T/C (Sarcoma-180 [4]): 140% | inhibition at 8 µM (Sarcoma-180 [5]): 60% | inhibition at 8 µM (Sarcoma-180 [6]): 65% | T/C (Ehrlich): 134%

COc1ccc2c(CC(=O)NCCN3C(=O)c4cccc5c(N(C)C)ccc(c45)C3=O)c(C)n(C(=O)c3ccc(Cl)cc3)c2c1
pIC50 (P388): 4.86 | pIC50 (MCF7): 4.86 | pIC50 (A549): 4.86 | pIC50 (HCT-8): 4.86 | pIC50 (A-375): 4.86 | pIC50 (HL-60): 4.86 | pIC50 (HeLa): 4.86

C[n+]1ccc(CCN2C(=O)c3cccc4c(N)ccc(c34)C2=O)cc1
Kb (Salmon testes DNA): 1.38 10^5/M | Kb (Homo sapiens [7]): 0.82 10^5/M | Kb (Homo sapiens [8]): 5.15 10^5/M

C[n+]1ccn(CCN2C(=O)c3cc(Br)c4c5c(cc(Br)c(c35)C2=O)C(=O)N(CCn2cc[n+](C)c2)C4=O)c1
K (Calf thymus DNA [9]): 9.53 10^6/M

O=C1c2cccc3c([N+](=O)[O-])ccc(c23)C(=O)N1c1cccc(-c2cc[n+]3c(c2)-c2cccc[n+]2CC3)c1
ΔTm (Homo sapiens [10]): 11 °C | K (Calf thymus DNA [11]): 6.5 10^6/M | ΔTm (Homo sapiens [12]): 23 °C

O=C1c2cccc3cc([N+](=O)[O-])cc(c23)C(=O)N1CCCCN(CCCl)CCCl
pIC50 (Bel-7402): 5.72 | pIC50 (HepG2): 5.72 | pIC50 (H22): 5.72 | pIC50 (SMMC-7721 [13]): 5.72
